The values below come from US20130252890A1, “6,7-DIHYDRO-5H-BENZO[7]ANNULENE DERIVATIVES, PROCESS FOR PREPARATION THEREOF, PHARMACEUTICAL PREPARATIONS COMPRISING THEM, AND THE USE THEREOF FOR PRODUCTION OF MEDICAMENTS” (BAYER INTELLECTUAL PROPERTY GMBH, priority 2010, published 2013).

Usually IC50 stands for the midpoint of a concentration-inhibition curve.

This assay concerns the target T1, oestrogen receptor (ER) (Homo sapiens, UniProt P03372).
T1 construct: These MVLN cells express, along with the functional oestrogen receptor (ER), a reporter construct; endogenous in cells; host or cells: MVLN cells (MCF7 derivative carrying a luciferase reporter construct)
T1 sequence (P03372 1-595): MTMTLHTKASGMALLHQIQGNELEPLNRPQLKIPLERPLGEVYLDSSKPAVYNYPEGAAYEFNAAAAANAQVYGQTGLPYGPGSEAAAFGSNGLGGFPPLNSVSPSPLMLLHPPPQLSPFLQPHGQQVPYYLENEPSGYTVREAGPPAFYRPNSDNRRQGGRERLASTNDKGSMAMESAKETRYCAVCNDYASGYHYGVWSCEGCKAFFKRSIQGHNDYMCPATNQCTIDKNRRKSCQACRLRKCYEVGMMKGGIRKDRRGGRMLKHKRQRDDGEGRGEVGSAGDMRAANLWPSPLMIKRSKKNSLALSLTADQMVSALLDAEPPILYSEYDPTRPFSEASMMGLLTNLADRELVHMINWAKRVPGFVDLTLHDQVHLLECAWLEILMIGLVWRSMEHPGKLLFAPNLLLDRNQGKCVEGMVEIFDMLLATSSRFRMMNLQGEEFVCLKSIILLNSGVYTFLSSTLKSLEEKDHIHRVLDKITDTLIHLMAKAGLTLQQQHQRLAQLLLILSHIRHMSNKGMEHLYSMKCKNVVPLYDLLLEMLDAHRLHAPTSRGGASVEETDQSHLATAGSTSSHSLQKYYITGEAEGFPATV
Description: Anti-oestrogenic action in MVLN cells (inhibition of estradiol-induced luciferase). Type of assay: cell-based. Conditions: inhibition of estradiol-induced luciferase signal, value of Ex. 44 is a mean value, read-out: Antioestrogenic action in vitro: MVLN transactivation antagonism IC50. The source says:
The anti-oestrogenic action of the claimed pharmacological compounds was investigated in so-called MVLN cells in vitro. MVLN cells are derivatives of the hormone-responsive MCF7 breast cancer cells known by a person skilled in the art. These MVLN cells express, along with the functional oestrogen receptor (ER), a reporter construct, which under ER-activation expresses luciferase. Determination of the activity of the induced luciferase permits a direct conclusion on the oestrogen properties of substances. To investigate the anti-oestrogenic properties of the pharmacological compounds, they were investigated in the presence of oestrogen for their potential for inhibiting the luciferase signal induced by estradiol. The claimed pharmacological test substances were investigated in MVLN cells for their anti-oestrogenic potential, as described (see Table 2).
`CN(CCCCCCC1=C(c2cc(F)cc(F)c2)CCCc2cc(O)ccc21)CCCS(=O)(=O)CCCC(F)(F)C(F)(F)F` [Example 1, 8-(3,5-Difluorophenyl)-9-[6-(methyl{3-[(4,4,5,5,5-pentafluoropentyl)sulphonyl]propyl}amino)hexyl]-6,7-dihydro-5H-benzo[7]annulen-3-ol]: the IC50 was 48 nM.

As to `CN(CCCCCCC1=C(c2cc(F)cc(F)c2)CCCc2cc(O)ccc21)CCC[S+]([O-])CCC(F)(F)C(F)(F)F` (centres unmarked) [Example 2, 8-(3,5-Difluorophenyl)-9-[6-(methyl{3-[(3,3,4,4,4-pentafluorobutyl)sulphinyl]propyl}amino)hexyl]-6,7-dihydro-5H-benzo[7]annulen-3-ol], the IC50 stood at 8 nM.

Turning to `CN(CCCCCCC1=C(c2cc(F)cc(F)c2)CCCc2cc(O)ccc21)CCCS(=O)(=O)CCC(F)(F)C(F)(F)F` [Example 3, 8-(3,5-Difluorophenyl)-9-[6-(methyl{3-[(3,3,4,4,4-pentafluorobutyl)sulphonyl]propyl}amino)hexyl]-6,7-dihydro-5H-benzo[7]annulen-3-ol], the IC50 is 180 nM.

In the case of `CN(CCCCCCC1=C(c2cc(F)cc(F)c2)CCCc2cc(O)ccc21)CCCC[S+]([O-])CCCC(F)(F)C(F)(F)F` (centres unmarked) [Example 4, 8-(3,5-Difluorophenyl)-9-[6-(methyl{4-[(4,4,5,5,5-pentafluoropentyl)sulphinyl]butyl}amino)hexyl]-6,7-dihydro-5H-benzo[7]annulen-3-ol], the IC50 is 6 nM.

Turning to `CN(CCCCCCC1=C(c2cc(F)cc(F)c2)CCCc2cc(O)ccc21)CCC[S+]([O-])CCC(F)(F)F` (centres unmarked) [Example 5, 8-(3,5-Difluorophenyl)-9-[6-(methyl{3-[(3,3,3-trifluoropropyl)sulphinyl]propyl}amino)hexyl]-6,7-dihydro-5H-benzo[7]annulen-3-ol], the IC50 was 46 nM.

For the compound `CN(CCCCCCC1=C(c2cc(F)cc(F)c2)CCCc2cc(O)ccc21)CCCS(=O)(=O)CCC(F)(F)F` [Example 6, 8-(3,5-Difluorophenyl)-9-[6-(methyl{3-[(3,3,3-trifluoropropyl)sulphonyl]propyl}amino)hexyl]-6,7-dihydro-5H-benzo[7]annulen-3-ol], the IC50 is 181 nM.

Turning to `CN(CCCCCCC1=C(c2cc(F)cc(F)c2)CCCc2cc(O)ccc21)CCC[S+]([O-])CCCC(F)(F)C(F)(F)F` (centres unmarked) [Example 8, 8-(3,5-Difluorophenyl)-9-[6-(methyl{3-[(4,4,5,5,5-pentafluoropentyl)sulphinyl]propyl}amino)hexyl]-6,7-dihydro-5H-benzo[7]annulen-3-ol], the IC50 worked out at 12 nM.

With `CN(CCCCCCC1=C(c2cc(F)cc(F)c2)CCCc2cc(O)ccc21)CCCCS(=O)(=O)CCCC(F)(F)C(F)(F)F` [Example 9, 8-(3,5-Difluorophenyl)-9-[6-(methyl{4-[(4,4,5,5,5-pentafluoropentyl)sulphonyl]butyl}amino)hexyl]-6,7-dihydro-5H-benzo[7]annulen-3-ol], the IC50 turned out to be 17 nM.

As to `CC(C)(O)CN(CCCCCCC1=C(c2cc(F)cc(F)c2)CCCc2cc(O)ccc21)CCC[S+]([O-])CCC(F)(F)F` (centres unmarked) [Example 10, 8-(3,5-Difluorophenyl)-9-{6-[(2-hydroxy-2-methylpropyl){3-[(3,3,3-trifluoropropyl)sulphinyl]propyl}amino]hexyl}-6,7-dihydro-5H-benzo[7]annulen-3-ol], the IC50 is 38 nM.

For the compound `CC(C)(O)CN(CCCCCCC1=C(c2cc(F)cc(F)c2)CCCc2cc(O)ccc21)CCCS(=O)(=O)CCC(F)(F)F` [Example 11, 8-(3,5-Difluorophenyl)-9-{6-[(2-hydroxy-2-methylpropyl){3-[(3,3,3-trifluoropropyl)sulphonyl]propyl}amino]hexyl}-6,7-dihydro-5H-benzo[7]annulen-3-ol], the IC50 turned out to be 84 nM.

For `CC(C)(O)CN(CCCCCCC1=C(c2cc(F)cc(F)c2)CCCc2cc(O)ccc21)CCC[S+]([O-])CCCC(F)(F)C(F)(F)F` (centres unmarked) [Example 12, 8-(3,5-Difluorophenyl)-9-{6-[(2-hydroxy-2-methylpropyl){3-[(4,4,5,5,5-pentafluoropentyl)sulphinyl]propyl}amino]hexyl}-6,7-dihydro-5H-benzo[7]annulen-3-ol], the IC50 was 15 nM.

In the case of `CC(C)(O)CN(CCCCCCC1=C(c2cc(F)cc(F)c2)CCCc2cc(O)ccc21)CCCS(=O)(=O)CCCC(F)(F)C(F)(F)F` [Example 13, 8-(3,5-Difluorophenyl)-9-{6-[(2-hydroxy-2-methylpropyl){3-[(4,4,5,5,5-pentafluoropentyl)sulphonyl]propyl}amino]hexyl}-6,7-dihydro-5H-benzo[7]annulen-3-ol], the IC50 was found to be 20 nM.

On to `CCN(CCCCCCC1=C(c2cc(F)cc(F)c2)CCCc2cc(O)ccc21)CCCS(=O)(=O)CCC(F)(F)F` [Example 14, 8-(3,5-Difluorophenyl)-9-[6-(ethyl{3-[(3,3,3-trifluoropropyl)sulphonyl]propyl}amino)hexyl]-6,7-dihydro-5H-benzo[7]annulen-3-ol], for which the IC50 was 168 nM.

With `COCCN(CCCCCCC1=C(c2cc(F)cc(F)c2)CCCc2cc(O)ccc21)CCCS(=O)(=O)CCCC(F)(F)C(F)(F)F` [Example 15, 8-(3,5-Difluorophenyl)-9-{6-[(2-methoxyethyl){3-[(4,4,5,5,5-pentafluoropentyl)sulphonyl]propyl}amino]hexyl}-6,7-dihydro-5H-benzo[7]annulen-3-ol], the IC50 came to 26 nM.

Turning to `COCCCN(CCCCCCC1=C(c2cc(F)cc(F)c2)CCCc2cc(O)ccc21)CCCS(=O)(=O)CCCC(F)(F)C(F)(F)F` [Example 16, 8-(3,5-Difluorophenyl)-9-{6-[(3-methoxypropyl){3-[(4,4,5,5,5-pentafluoropentyl)sulphonyl]propyl}amino]hexyl}-6,7-dihydro-5H-benzo[7]annulen-3-ol], the 50% inhibitory concentration (IC50) worked out at 27 nM.

Take `CN(CCCCCCC1=C(c2ccc(F)c(F)c2)CCCc2cc(O)ccc21)CCCS(=O)(=O)CCCC(F)(F)C(F)(F)F` [Example 17, 8-(3,4-Difluorophenyl)-9-[6-(methyl{3-[(4,4,5,5,5-pentafluoropentyl)sulphonyl]propyl}amino)hexyl]-6,7-dihydro-5H-benzo[7]annulen-3-ol]: the IC50 worked out at 46 nM.

As to `CN(CCCCCCC1=C(c2ccc(F)c(F)c2)CCCc2cc(O)ccc21)CCC[S+]([O-])CCC(F)(F)C(F)(F)F` (centres unmarked) [Example 18, 8-(3,4-Difluorophenyl)-9-[6-(methyl{3-[(3,3,4,4,4-pentafluorobutyl)sulphinyl]propyl}amino)hexyl]-6,7-dihydro-5H-benzo[7]annulen-3-ol], the IC50 turned out to be 34 nM.

As to `CN(CCCCCCC1=C(c2ccc(F)c(F)c2)CCCc2cc(O)ccc21)CCCS(=O)(=O)CCC(F)(F)C(F)(F)F` [Example 19, 8-(3,4-Difluorophenyl)-9-[6-(methyl{3-[(3,3,4,4,4-pentafluorobutyl)sulphonyl]propyl}amino)hexyl]-6,7-dihydro-5H-benzo[7]annulen-3-ol], the concentration for half-maximal inhibition (IC50) was found to be 62 nM.

On to `CN(CCCCCCC1=C(c2ccc(F)c(F)c2)CCCc2cc(O)ccc21)CCCC[S+]([O-])CCCC(F)(F)C(F)(F)F` (centres unmarked) [Example 20, 8-(3,4-Difluorophenyl)-9-[6-(methyl{4-[(4,4,5,5,5-pentafluoropentyl)sulphinyl]butyl}amino)hexyl]-6,7-dihydro-5H-benzo[7]annulen-3-ol], for which the IC50 worked out at 9 nM.

Regarding `CN(CCCCCCC1=C(c2ccc(F)c(F)c2)CCCc2cc(O)ccc21)CCC[S+]([O-])CCC(F)(F)F` (centres unmarked) [Example 21, 8-(3,4-Difluorophenyl)-9-[6-(methyl{3-[(3,3,3-trifluoropropyl)sulphinyl]propyl}amino)hexyl]-6,7-dihydro-5H-benzo[7]annulen-3-ol], the IC50 was 48 nM.

Consider `CN(CCCCCCC1=C(c2ccc(F)c(F)c2)CCCc2cc(O)ccc21)CCCS(=O)(=O)CCC(F)(F)F` [Example 22, 8-(3,4-Difluorophenyl)-9-[6-(methyl{3-[(3,3,3-trifluoropropyl)sulphonyl]propyl}amino)hexyl]-6,7-dihydro-5H-benzo[7]annulen-3-ol], for which the IC50 was determined as 222 nM.

With `CN(CCCCCCC1=C(c2ccc(F)c(F)c2)CCCc2cc(O)ccc21)CCC[S+]([O-])CCCC(F)(F)C(F)(F)F` (centres unmarked) [Example 24, 8-(3,4-Difluorophenyl)-9-[6-(methyl{3-[(4,4,5,5,5-pentafluoropentyl)sulphinyl]propyl}amino)hexyl]-6,7-dihydro-5H-benzo[7]annulen-3-ol], the IC50 was 8 nM.

Take `CN(CCCCCCC1=C(c2ccc(F)c(F)c2)CCCc2cc(O)ccc21)CCCCS(=O)(=O)CCCC(F)(F)C(F)(F)F` [Example 25, 8-(3,4-Difluorophenyl)-9-[6-(methyl{4-[(4,4,5,5,5-pentafluoropentyl)sulphonyl]butyl}amino)hexyl]-6,7-dihydro-5H-benzo[7]annulen-3-ol]: the IC50 turned out to be 28 nM.
